In the test the target is T1, PD-1/PD-L1 interaction (PE-labeled human PD-L1-Ig binding to Jurkat cell line over-expressing human PD-1) (Homo sapiens, UniProt Q15116).
T1 construct: expressed in transfected cells; host or cells: Jurkat
The test can be described thus: Jurkat-PD-1 Cell Binding High-Content Screening Assay (CBA). Type of test: cell-based. The settings on record: PE-labeled PD-L1-Ig 20 nM final. Summed up: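 Jurkat cells stably over-expressing human PD-1 were seeded in DMEM with 10% fetal calf serum and pre-incubated with compound for 2 h at 37° C. PE-labeled human PD-L1-Ig was then added at 20 nM final for 1 hour, after which cells were fixed with paraformaldehyde, Hoechst-stained and imaged by high-content microscopy.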

Setting [1] is: Jurkat cell line over-expressing human PD-1, read-out: Jurkat hPD1-PDL1 IC50.

Read-outs that look alike come from different tables or passages of the source. Numbered stars: 1 amine (or outer) side, 2 acyl side, 3 side chain; on linkers, the order of the positions; unused ones are H or OH. Bridge positions count the residues as written; N and C are the ends. Square brackets hold non-standard residues; d marks the D form. Peptide text beside a SMILES is read from it. * marks the point of attachment. ξ: configuration not given here. Phe(4-COOH) = N[C@@H](Cc1ccc(C(=O)O)cc1)C(=O)O; Bip = N[C@@H](Cc1ccc(-c2ccccc2)cc1)C(=O)O; Phe(3-Me) = Cc1cccc(C[C@H](N)C(=O)O)c1; γGlu = O=C(O)[C@H](CCC(=O)[*:2])N[*:1]; NH(CH2)12COOH = O=C(O)CCCCCCCCCCCCN*; Val(3-OH) = CC(C)(O)[C@H](N)C(=O)O; hArg = N=C(N)NCCCC[C@H](N)C(=O)O; 4Pal = N[C@@H](Cc1ccncc1)C(=O)O; Cha = N[C@@H](CC1CCCCC1)C(=O)O; Cit = NC(=O)NCCC[C@H](N)C(=O)O; Thr(3ξ) = CC(O)[C@H](N)C(=O)O; 4Abz = Nc1ccc(C(=O)O)cc1; Carboxymethyl = O=C(O)C*; Orn = NCCC[C@H](N)C(=O)O; Aun = NCCCCCCCCCCC(=O)O; Dab = NCC[C@H](N)C(=O)O; Dap = NC[C@H](N)C(=O)O; AEEA = NCCOCCOCC(=O)O

In general, IC50 refers to the concentration that inhibits the measured activity by half.

T1 sequence (Q15116 25-288): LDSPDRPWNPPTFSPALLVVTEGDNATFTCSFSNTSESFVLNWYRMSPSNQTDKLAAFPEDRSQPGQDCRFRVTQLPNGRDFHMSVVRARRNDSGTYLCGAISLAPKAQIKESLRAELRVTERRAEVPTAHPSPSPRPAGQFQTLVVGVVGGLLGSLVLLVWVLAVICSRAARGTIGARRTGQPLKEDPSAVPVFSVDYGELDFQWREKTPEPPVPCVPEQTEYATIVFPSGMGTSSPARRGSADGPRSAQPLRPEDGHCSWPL

Regarding `Cc1cccc(C[C@@H]2NC(=O)[C@H](CC(=O)O)NC(=O)[C@H](Cc3ccc(OCC(=O)O)cc3)NC(=O)[C@H](C(C)O)NC(=O)CSC[C@@H](C(=O)N[C@@H](CCN)C(=O)NCCOCCOCC(=O)N[C@@H](CCC(=O)NCCOCCOCC(=O)NCCCCCCCCCCCCC(=O)O)C(=O)O)NC(=O)[C@H](CO)NC(=O)[C@H](C(C)(C)O)NC(=O)[C@H](CC3CCCCC3)NC(=O)[C@H](CCN)NC(=O)[C@@H](CC(C)C)NC(=O)[C@H](CCCN)NC(=O)[C@H](Cc3ccc(C(=O)O)cc3)NC(=O)[C@H](Cc3ccc(-c4ccccc4)cc3)NC(=O)[C@H](Cc3ccc(C(=O)O)cc3)NC2=O)c1` (stereo partly drawn) [Compound 3907] ({CH2CO}-[Thr(3ξ)]Y(Carboxymethyl)D[Phe(3-Me)][Phe(4-COOH)][Bip][Phe(4-COOH)][Orn][dL][Dab][Cha][Val(3-OH)]SC[Dab][AEEA][γGlu][AEEA]-{NH(CH2)12COOH}; thioether N-14), the concentration for half-maximal inhibition (IC50) under setting [1] turned out to be 16.6 nM. As to `Cc1cccc(C[C@@H]2NC(=O)[C@H](CC(=O)O)NC(=O)[C@H](Cc3ccc(OCC(=O)O)cc3)NC(=O)[C@H](CN)NC(=O)CSC[C@@H](C(=O)N[C@H](CO)C(=O)N[C@@H](CCC(=O)O)C(=O)NCCCCCCCCCCC(=O)O)NC(=O)[C@H]([C@@H](C)O)NC(=O)[C@H](C(C)C)NC(=O)[C@H](CC3CCCCC3)NC(=O)[C@H](CCN)NC(=O)[C@@H](CC(C)C)NC(=O)[C@H](CCCN)NC(=O)[C@H](CCCNC(N)=O)NC(=O)[C@H](Cc3ccc(-c4ccccc4)cc3)NC(=O)[C@H](C(C)C)NC2=O)c1` [Compound 2807] ({CH2CO}-[Dap]Y(Carboxymethyl)D[Phe(3-Me)]V[Bip][Cit][Orn][dL][Dab][Cha]VTC[dS]E[Aun]-OH; thioether N-14), the IC50 under setting [1] was 16.5 nM. The same measure, in the same setting: next, `CC(C)C[C@H]1NC(=O)[C@H](CCCN)NC(=O)[C@H](C(C)C)NC(=O)[C@H](Cc2ccc(-c3ccccc3)cc2)NC(=O)[C@H](C(C)C)NC(=O)[C@H](Cc2c[nH]c3ccccc23)NC(=O)[C@H](CC(=O)O)NC(=O)[C@H](Cc2ccc(OCC(=O)O)cc2)NC(=O)[C@H](CN)NC(=O)CSC[C@@H](C(=O)N[C@@H](CCCCN)C(=O)NCCCCCCCCCCC(=O)O)NC(=O)[C@H](CCCCN)NC(=O)[C@H](C(C)C)NC(=O)[C@H](CC2CCCCC2)NC(=O)[C@H](CCN)NC1=O` [Compound 2533] ({CH2CO}-[Dap]Y(Carboxymethyl)DWV[Bip]V[Orn][dL][Dab][Cha]VKCK[Aun]-OH; thioether N-14): 23.8 nM; `CC(C)C[C@H]1NC(=O)[C@H](CCCN)NC(=O)[C@H](C(C)C)NC(=O)[C@H](Cc2ccc(-c3ccccc3)cc2)NC(=O)[C@H](C(C)C)NC(=O)[C@H](Cc2c[nH]c3ccccc23)NC(=O)[C@H](CC(=O)O)NC(=O)[C@H](Cc2ccc(OCC(=O)O)cc2)NC(=O)[C@H](CCCCNC(=N)N)NC(=O)CSC[C@@H](C(=O)NCC(=O)NCCOCCOCC(=O)N[C@@H](CCCN)C(=O)NCCCCCCCCCCC(=O)O)NC(=O)[C@H](CCN)NC(=O)[C@H](C(C)C)NC(=O)[C@H](CC2CCCCC2)NC(=O)[C@H](CC(N)=O)NC1=O` [Compound 3202] ({CH2CO}-[hArg]Y(Carboxymethyl)DWV[Bip]V[Orn][dL]N[Cha]V[Dab]CG[AEEA][Orn][Aun]-OH; thioether N-14): 19.3 nM. With `CC(C)C[C@@H]1NC(=O)[C@H](Cc2c[nH]c3ccccc23)NC(=O)[C@H](CC(=O)O)NC(=O)[C@H](Cc2ccncc2)NC(=O)[C@H](Cc2ccc(OCC(=O)O)cc2)NC(=O)CSC[C@@H](C(=O)Nc2ccc(C(=O)NCCCCCCCCCCC(=O)O)cc2)NC(=O)[C@H](CCCNC(=N)N)NC(=O)[C@H](C(C)C)NC(=O)[C@H](CC2CCCCC2)NC(=O)[C@H](CCN)NC(=O)[C@@H](CC(C)C)NC(=O)[C@H](CCCN)NC(=O)[C@H](C(C)C)NC(=O)[C@H](Cc2ccc(-c3ccccc3)cc2)NC1=O` [Compound 1230] ({CH2CO}-Y(Carboxymethyl)[4Pal]DWL[Bip]V[Orn][dL][Dab][Cha]VRC[4Abz][Aun]-OH; thioether N-14), the 50% inhibitory concentration (IC50) (Jurkat hPD1-PDL1 IC50, Jurkat cell line over-expressing human PD-1) was 537 nM.

These data come from US20260022142A1, “MACROCYCLIC IMMUNOMODULATORS” (Bristol-Myers Squibb Company, priority 2022, published 2026).
